From US5374655A, “Methods for the synthesis of monofucosylated oligosaccharides terminating in di-N-acetyllactosaminyl structures” (Alberta Research Council, priority 1992, dated 1994)

How the values were obtained:
[1] = system: α(13/4)fucosyltransferase; test: Fucosyltransferase assay: relative rates of fucose transfer onto the 3-hydroxy of GlcNAc in βGal(1-4)βGlcNAc-OR; assay type: biochemical, human; conditions: fucosylation of disaccharide glycosides βGal(1-4)βGlcNAc-OR with different substituents at the 6-position of galactose
Procedure: The βGlcNAc α(13/4)fucosyltranferase was purified from human milk, as reported.^4 The enzymatic reactions were carried out at 37° C. in a plastic tube using a sodium cacodylate buffer (100 mM, pH 6.5), MnCl2 (10 mM), ATP (1.6 mM), NaN3 (1.6 mM). The reaction products were isolated and purified as indicated above.
Experiments were conducted to determine the relative rates of transfer of fucosylation onto the 3-hydroxy of the GlcNAc in disaccharide glycosides βGal(1-4)βGlcNAc-OR having different substituents at the 6-position of the galactose. Fucosyltransferase assays were conducted with α(13/4)fucosyltransferase in a manner similar to that described in the art^4 and gave the following results: […]

ELAM-1 = ELAM-1 dependent cell adhesion to activated vascular endothelium (U937 or HL60 binding to TNFα-stimulated HUVECs); assay type: cell-based, human; conditions: HUVECs stimulated with TNFα (10 ng/ml); U937 or HL60 cells
Procedure: This example examines whether hexasaccharide 5a could inhibit ELAM-1 dependent cell adhesion to activated vascular endothelium. Specifically, an vitro cell binding assay was preformed as described by Lowe et al^33. Briefly, human umbilical vein endothelial cells (HUVECs purchased from Cell Systems, Seattle, Wash., USA) were stimulated with TNFα (10 ng/ml) to express ELAM-1.

Balb/c mice [2] = test: Persistence of suppression of the DTH inflammatory response, rechallenge 11 weeks after primary immunization; assay type: in vivo, mouse; conditions: rechallenge with L111 S-Layer protein 11 weeks after primary immunization
Procedure: (§1) DTH inflammatory responses were measured using the mouse footpad swelling assay as described by Smith and Ziola^31. […] Seven days later, each group of mice was footpad-challenged with 10 μg of L-111 S-Layer protein. The resulting inflammatory footpad swelling was measured with a Mitutoyo Engineering micrometer 24 hours after challenge.
i. The identical groups of mice treated with hexasaccharide glycoside 5a in Example 7 were rechallenged with L111 S-Layer protein 11 weeks after primary immunization.

Balb/c mice [3] = test: Mouse footpad swelling assay, DTH inflammatory response to L111 S-Layer protein; assay type: in vivo; parameters: INCREASE IN FOOTPAD SWELLING: unit not given here
Procedure: as §1
To assess the effect of hexasaccharide glycoside 5a on the inflammatory DTH response, groups of mice received 100 μg of this compound, injected into the tail vein, 5 hours after challenge. Control groups received 100 μL of phosphate-buffered saline (PBS).

| Relative Rate of Transfer [1] | SMILES | inhibition of ELAM-1 dependent binding to the HUVECs (ELAM-1) | footpad swelling relative to that exhibited in mice treated with PBS (Balb/c mice [2]) | reduction in footpad swelling (Balb/c mice [2]; versus PBS control) | INCREASE IN FOOTPAD SWELLING (Balb/c mice [3]; 100 μg injected into the tail vein 5 hours after challenge, swelling measured 24 hours after challenge) | footpad swelling as compared to the control mice (Balb/c mice [3]; 100 μg into the tail vein 5 hours after challenge, 24 hours after challenge) |
| --- | --- | --- | --- | --- | --- | --- |
| 9 | COC(=O)CCOCCO[C@@H]1O[C@H](CO)[C@@H](O[C@@H]2O[C@H](C)[C@H](O)[C@H](O)[C@H]2O)[C@H](O)[C@H]1NC(C)=O [H] |  |  |  |  |  |
|  | COC(=O)CCCCCCCCO[C@@H]1O[C@H](CO)[C@@H](O[C@@H]2O[C@H](CO)[C@H](O)[C@H](O[C@@H]3O[C@H](CO)[C@@H](O[C@@H]4O[C@H](CO)[C@H](O)[C@H](O[C@]5(C(=O)O)C[C@H](O)[C@@H](NC(C)=O)[C@H]([C@H](O)[C@H](O)CO)O5)[C@H]4O)[C@H](O)[C@H]3NC(C)=O)[C@H]2O)[C@H](O[C@@H]2O[C@@H](C)[C@@H](O)[C@@H](O)[C@@H]2O)[C@H]1NC(C)=O [hexasaccharide glycoside 5a, 8-Methoxycarbonyloctyl (5-Acetamido-3,5-dideoxy-α-D-glycero-D-galacto-2-nonulopyranosylonicacid)-(2-3)--O--β-D-galactopyranosyl-(1-4)--O-- 2-acetamido-2-deoxy-β-D-glucopyranosyl-(1-3)--O--β-D-galactopyranosyl-(1-4)--O--[α-L-fucopyranosyl-(1-3)--O--]2-acetamido-2-deoxy-β-D-glucopyranoside] | inhibits ELAM-1 dependent binding to the HUVECs | about 60% | about 40% | 1.5 | less than 50% |
| 100 | COC(=O)CCCCCCCCO[C@@H]1O[C@H](CO)[C@@H](O[C@@H]2O[C@H](CO)[C@H](O)[C@H](O)[C@H]2O)[C@H](O)[C@H]1NC(C)=O [--OH] |  |  |  |  |  |
